Results on 11 compounds are retold here after PubChem BioAssay (NCI).

Test systems include A498 renal; A549 NSCLC; ACHN renal; COLO 205 colon; DMS 114 small cell lung; HL-60(TB) leukemia; HOP-18 NSCLC; KM12 colon; SF-539 CNS; SNB-78 CNS; SW-620 colon; M19-MEL melanoma.
What all share (assay): NCI-60 cell line screen, 48 h

SMILES strings stand for the structures. Where “and” joins values, the source holds several entries; their conditions need not be identical. Identical values can stand only once.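 Dose response: 5 concentrations. Exposure: 48 h. Format: 96-well plates. Endpoint: linear interpolation; highest concentration if not reached. GI50 is the concentration that inhibits growth by half. TGI marks complete inhibition of growth.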 Some results are limits rather than exact numbers.

`CCNC(C)Cc1ccccc1` (centres undefined): the TGI in the test on A498 renal, in the test with A549 NSCLC, in the test on ACHN renal, with COLO 205 colon, in the test on DMS 114 small cell lung and with HL-60(TB) leukemia was more than 100 µM in each case. The TGI with HOP-18 NSCLC, in the test with KM12 colon, in the test with SF-539 CNS, in the test with SNB-78 CNS and in the test on SW-620 colon was more than 100 µM in each case.
As for `CC1(C)CCC[C@@]2(C)C1CCC1(C)C(CCc3ccoc3)/C(=C/OS(=O)(=O)O)CCC12` (some centres undefined) (tested in a mixture with another compound), the TGI in the test on A498 renal, with A549 NSCLC, with ACHN renal, with COLO 205 colon, in the test with DMS 114 small cell lung and with HL-60(TB) leukemia was more than 100 µM in each case. In addition, the TGI with HOP-18 NSCLC, with KM12 colon, in the test with M19-MEL melanoma, in the test with SF-539 CNS, in the test with SNB-78 CNS and in the test with SW-620 colon was more than 100 µM each time.
For `OC1[C@H]([C@H]2CCCC[C@@H]2O)CCC[C@@H]1[C@@H]1CCCC[C@H]1O` (some centres undefined), the TGI in the test on A498 renal, with A549 NSCLC, in the test with ACHN renal, in the test on COLO 205 colon, in the test with DMS 114 small cell lung and in the test with HL-60(TB) leukemia was more than 100 µM throughout. Moreover, the TGI in the test on HOP-18 NSCLC, in the test with KM12 colon, in the test with M19-MEL melanoma, in the test on SF-539 CNS, in the test on SNB-78 CNS and with SW-620 colon was more than 100 µM in each case.
For `CC[C@]1(O)C[C@H]2CN(CCc3c([nH]c4ccccc34)[C@@](C(=O)OC)(c3cc4c(cc3OC)N(C=O)[C@H]3[C@@](O)(C(=O)OC)[C@H](OC(C)=O)[C@]5(CC)C=CCN6CC[C@]43[C@@H]65)C2)C1`, the GI50 was 0.00192 µM in the test with A498 renal, 0.00846 µM with ACHN renal and 0.00159 µM in the test on COLO 205 colon. The TGI with COLO 205 colon was 0.0463 µM and 0.22 µM; in the test on DMS 114 small cell lung, 0.56 µM; with HOP-18 NSCLC it was 87.3 µM; with M19-MEL melanoma, 169 µM; in the test with SNB-78 CNS it was 109 µM; in the test on SW-620 colon, 141 µM and 18 µM.
`CCC(C)n1c(C)nc2c1C(=O)c1ccccc1C2=O` (centres undefined): the TGI in the test with A549 NSCLC is more than 100 µM; in the test with ACHN renal it was more than 100 µM; with COLO 205 colon, more than 100 µM; in the test with HL-60(TB) leukemia, more than 100 µM; with KM12 colon, more than 100 µM; in the test with M19-MEL melanoma it was 37.5 µM. Besides, the TGI in the test with SF-539 CNS, in the test with SNB-78 CNS and in the test on SW-620 colon was more than 100 µM in each case.
For the compound `C=CCOC(=O)N1[C@H]2C#C/C=C\C#C[C@]3(O)C(=O)C[C@H](C)[C@]24O[C@]43C2=CC(=O)C=CC21OC` (some centres undefined), the TGI with A498 renal is 38 µM; in the test on A549 NSCLC, more than 100 µM; with ACHN renal it was 63.6 µM; in the test with COLO 205 colon, 38.8 µM; in the test on HL-60(TB) leukemia, 92.8 µM; with KM12 colon it was 67.7 µM. Besides, the TGI in the test with SF-539 CNS is 45.8 µM; in the test with SW-620 colon it was more than 100 µM.
`NNC(=O)CSc1nc2ccc(I)cc2c(=O)n1Cc1ccccc1`: the TGI in the test on A498 renal was 33.2 µM; in the test with A549 NSCLC, 54.6 µM; in the test on ACHN renal it was 40.2 µM; in the test on COLO 205 colon it was 53.2 µM; with HL-60(TB) leukemia it was 61 µM; in the test on KM12 colon, 58.7 µM. For the same compound, the TGI was 52 µM in the test on SF-539 CNS and more than 100 µM in the test on SW-620 colon.
Regarding `CCc1ccc(N=Cc2cc(OC)c(OC)c(OC)c2)cc1`, the TGI in the test with A498 renal was more than 100 µM; with A549 NSCLC it was more than 100 µM; with ACHN renal, more than 100 µM; in the test with COLO 205 colon it was more than 100 µM; in the test on DMS 114 small cell lung, 76.1 µM; in the test on HL-60(TB) leukemia it was more than 100 µM. The TGI was more than 100 µM with HOP-18 NSCLC; more than 100 µM in the test on KM12 colon; more than 100 µM with M19-MEL melanoma; more than 100 µM in the test on SF-539 CNS; more than 100 µM in the test with SNB-78 CNS; 28.7 µM in the test on SW-620 colon.
As for `CC(C)(C)c1cc(CC2C(=O)c3ccccc3C2=O)cc(C(C)(C)C)c1O`, the TGI is 47.7 µM in the test on A498 renal; 87.2 µM in the test on A549 NSCLC; more than 100 µM in the test with ACHN renal; 30.7 µM in the test on COLO 205 colon; 6.69 µM with HL-60(TB) leukemia; 19.1 µM in the test with KM12 colon. Also, the values for the TGI in the test with SF-539 CNS and in the test with SW-620 colon were 16.7 µM and 17.1 µM, respectively.
For `Cc1ccccc1C(=O)c1c(O)c2c(c(O)c1Br)CCCC2`, the TGI in the test with A498 renal came to 43.7 µM; with A549 NSCLC, 54.1 µM; with ACHN renal, 31.9 µM; with COLO 205 colon, 34.2 µM; in the test with DMS 114 small cell lung, 27.5 µM; in the test with HL-60(TB) leukemia, 23 µM. In addition, the TGI in the test on HOP-18 NSCLC worked out at 25.2 µM; in the test on KM12 colon, 30.9 µM; in the test with M19-MEL melanoma, 29.4 µM; in the test with SF-539 CNS, 33.4 µM; in the test with SNB-78 CNS, 47.5 µM; in the test with SW-620 colon, 34.1 µM.
As for `COC(=O)CCc1cc(OC)c(O)c(C(Cc2ccc(OC)c(OC)c2)C(=O)OC)c1` (centres undefined), the TGI in the test on A498 renal, with A549 NSCLC, in the test on ACHN renal, in the test with COLO 205 colon, in the test with HL-60(TB) leukemia and in the test with KM12 colon was more than 100 µM each time. In addition, the TGI with SF-539 CNS and with SW-620 colon was more than 100 µM each time.
